Assay results taken from patent publication US10815230B2, “Casein kinase 1 delta inhibitor” (ELECTROPHORETICS LIMITED, priority 2015, dated 2020).

Experiments:
RIPK1 = RIPK1 (Homo sapiens, UniProt Q13546); test: KINOMEscan binding assay; settings: read-out: % Ctrl @ 10000 nM
BRAF (V600E) = BRAF (V600E) (Homo sapiens, UniProt P15056, V600E); test: KINOMEscan binding assay; settings: read-out: % Ctrl @ 10000 nM
DRAK2 = DRAK2 (Homo sapiens, UniProt O94768); test: KINOMEscan binding assay; settings: read-out: % Ctrl @ 10000 nM
PRKCQ = PRKCQ (Homo sapiens, UniProt Q04759); test: KINOMEscan binding assay; settings: read-out: % Ctrl @ 10000 nM
MET (Y1235D) = MET (Y1235D) (Homo sapiens, UniProt P08581, Y1235D); test: KINOMEscan binding assay; settings: read-out: % Ctrl @ 10000 nM
FGR = FGR (Homo sapiens, UniProt P09769); test: KINOMEscan binding assay; settings: read-out: % Ctrl @ 10000 nM
Sequence of FGR (P09769 whole entry): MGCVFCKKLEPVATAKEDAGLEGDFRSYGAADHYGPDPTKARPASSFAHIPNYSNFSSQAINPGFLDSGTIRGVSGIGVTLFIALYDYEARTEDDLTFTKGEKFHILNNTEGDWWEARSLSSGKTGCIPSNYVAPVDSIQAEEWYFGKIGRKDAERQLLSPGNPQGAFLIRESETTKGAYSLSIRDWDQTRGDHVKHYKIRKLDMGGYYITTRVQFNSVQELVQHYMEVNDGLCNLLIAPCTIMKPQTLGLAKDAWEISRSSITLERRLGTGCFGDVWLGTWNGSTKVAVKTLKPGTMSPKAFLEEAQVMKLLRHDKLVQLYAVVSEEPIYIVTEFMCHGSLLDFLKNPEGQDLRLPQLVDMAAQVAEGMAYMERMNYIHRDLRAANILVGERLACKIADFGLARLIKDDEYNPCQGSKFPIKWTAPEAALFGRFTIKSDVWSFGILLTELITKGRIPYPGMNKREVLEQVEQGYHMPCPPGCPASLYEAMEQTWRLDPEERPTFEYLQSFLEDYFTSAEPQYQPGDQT

non-mutant kinases = test: KINOMEscan kinase screening panel, binding capacity and Selectivity Score; settings: 10 μM, 395 non-mutant kinases
Description: The assay was carried out according to the established KINOMEscan® technology (DiscoveRx® LeadHunter®, Discovery services, www.discoverx.com). […] Screening “hits” are identified by measuring the amount of kinase captured in test versus control samples by using a quantitative, qPCR method that detects an associated DNA label. For most assays, kinase-tagged T7 phage strains ware grown in parallel in 24-well blocks in an E. coli host derived from the BL21 strain. E. coli were grown to log-phase and infected with T7 phage from a frozen stock (multiplicity of infection=0.4) and incubated with shading at 32° C. until lysis (90-150 minutes). The lysates were centrifuged (6,000×g) and filtered (0.2 μm) to remove cell debris. The remaining kinases were produced in HEK293 cells and subsequently tagged with DMA for qPCR detection. Streptavidin-coated magnetic beads were treated with biotinylated small molecule ligands for 30 minutes at room temperature to generate affinity resins for kinase assays. The liganded beads were blocked with excess biotin and washed with blocking buffer (SeaBlock (Pierce), 1% BSA, 0.05 % Tween 20, 1 mM DTT) to remove unbound ligand and to reduce non-specific phage binding. […] All reactions were performed in polypropylene 384-well plates in a final volume of 0.04 ml. The assay plates were incubated at room temperature with shaking for 1 hour and the affinity beads were washed with wash buffer (1×PBS, 0.05% Tween 20). The beads were then re-suspended in elution buffer (1×PBS, 0.05 % Tween 20, 0.5 μM non-biotinylated affinity ligand) and incubated at room temperature with shaking for 30 minutes. The kinase concentration in the eluates was measured by qPCR.
Results were reported as “% Ctrl”, where lower numbers indicate stronger hits. The calculation of the “% Ctrl” was as follow:
In addition to the binding capacity, the Selectivity Score (or S-score) was calculated (Karaman, M. W. et al. A quantitative analysis of kinase inhibitor selectivity. Nat. Biotechnol. 26, 127-132 (2008). The S-score is a quantitative measure of compound selectivity. It is calculated by dividing the number of kinases that a compound binds to by the total number of distinct kinases tested, excluding mutant variants. S-score−Number of hits/Number of assays
S(35)=(number of non-mutant kinases with % Ctrl<35)/(number of non-mutant kinases tested)
S(10)=(number of non-mutant kinases with % Ctrl<10)/(number of non-mutant kinases tested)
S(1)=(number of non-mutant kinases with % Ctrl<1)/(number of non-mutant kinases tested)
and provides a quantitative method of describing compound selectivity to facilitate comparison of different compounds. The screening concentration was 10 μM.

ACVRL1 = ACVRL1 (Homo sapiens, UniProt P37023); test: KINOMEscan binding assay; settings: read-out: % Ctrl @ 10000 nM
Sequence of ACVRL1 (P37023 22-503): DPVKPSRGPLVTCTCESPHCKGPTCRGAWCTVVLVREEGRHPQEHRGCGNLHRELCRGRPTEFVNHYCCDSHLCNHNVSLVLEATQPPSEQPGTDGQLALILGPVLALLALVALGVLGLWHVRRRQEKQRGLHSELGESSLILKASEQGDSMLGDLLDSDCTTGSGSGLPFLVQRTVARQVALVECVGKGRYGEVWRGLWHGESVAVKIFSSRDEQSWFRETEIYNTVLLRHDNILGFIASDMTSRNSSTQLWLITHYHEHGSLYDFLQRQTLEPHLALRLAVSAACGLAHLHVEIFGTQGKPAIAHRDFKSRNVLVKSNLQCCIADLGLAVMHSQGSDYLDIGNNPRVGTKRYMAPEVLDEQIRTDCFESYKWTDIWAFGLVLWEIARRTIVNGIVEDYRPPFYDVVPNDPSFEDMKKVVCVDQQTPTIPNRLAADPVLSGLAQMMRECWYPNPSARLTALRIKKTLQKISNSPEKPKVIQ

ANKK1 = ANKK1 (Homo sapiens, UniProt Q8NFD2); test: KINOMEscan binding assay; settings: read-out: % Ctrl @ 10000 nM
Sequence of ANKK1 (Q8NFD2 whole entry): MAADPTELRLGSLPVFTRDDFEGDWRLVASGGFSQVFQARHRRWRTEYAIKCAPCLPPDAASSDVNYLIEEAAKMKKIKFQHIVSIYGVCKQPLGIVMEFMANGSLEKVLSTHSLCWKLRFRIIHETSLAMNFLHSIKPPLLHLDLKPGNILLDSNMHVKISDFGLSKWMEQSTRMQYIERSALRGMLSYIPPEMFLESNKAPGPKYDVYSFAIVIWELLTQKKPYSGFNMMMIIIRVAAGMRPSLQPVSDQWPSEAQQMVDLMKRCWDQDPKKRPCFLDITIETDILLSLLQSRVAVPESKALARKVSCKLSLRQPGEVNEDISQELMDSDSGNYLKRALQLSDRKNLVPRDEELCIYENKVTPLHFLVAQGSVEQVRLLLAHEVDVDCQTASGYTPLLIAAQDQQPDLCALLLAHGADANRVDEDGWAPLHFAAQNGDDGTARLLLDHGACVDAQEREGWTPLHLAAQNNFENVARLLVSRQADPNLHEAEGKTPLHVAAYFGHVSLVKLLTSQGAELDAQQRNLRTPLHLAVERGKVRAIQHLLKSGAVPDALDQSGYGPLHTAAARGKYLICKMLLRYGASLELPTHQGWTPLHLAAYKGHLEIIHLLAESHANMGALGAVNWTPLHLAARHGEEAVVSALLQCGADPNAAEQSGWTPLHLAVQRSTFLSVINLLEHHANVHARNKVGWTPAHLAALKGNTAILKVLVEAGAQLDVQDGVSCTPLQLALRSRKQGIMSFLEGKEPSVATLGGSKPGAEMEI

CSF1R-autoinhibited = CSF1R-autoinhibited (Homo sapiens, UniProt P07333); test: KINOMEscan binding assay; settings: read-out: % Ctrl @ 10000 nM
MEK6 = MEK6 (Homo sapiens, UniProt P52564); test: KINOMEscan binding assay; settings: read-out: % Ctrl @ 10000 nM
FLT3 (ITD) = test: KINOMEscan binding assay
TIE1 = TIE1 (Homo sapiens, UniProt P35590); test: KINOMEscan binding assay; settings: read-out: % Ctrl @ 10000 nM
Sequence of TIE1 (P35590 22-1138): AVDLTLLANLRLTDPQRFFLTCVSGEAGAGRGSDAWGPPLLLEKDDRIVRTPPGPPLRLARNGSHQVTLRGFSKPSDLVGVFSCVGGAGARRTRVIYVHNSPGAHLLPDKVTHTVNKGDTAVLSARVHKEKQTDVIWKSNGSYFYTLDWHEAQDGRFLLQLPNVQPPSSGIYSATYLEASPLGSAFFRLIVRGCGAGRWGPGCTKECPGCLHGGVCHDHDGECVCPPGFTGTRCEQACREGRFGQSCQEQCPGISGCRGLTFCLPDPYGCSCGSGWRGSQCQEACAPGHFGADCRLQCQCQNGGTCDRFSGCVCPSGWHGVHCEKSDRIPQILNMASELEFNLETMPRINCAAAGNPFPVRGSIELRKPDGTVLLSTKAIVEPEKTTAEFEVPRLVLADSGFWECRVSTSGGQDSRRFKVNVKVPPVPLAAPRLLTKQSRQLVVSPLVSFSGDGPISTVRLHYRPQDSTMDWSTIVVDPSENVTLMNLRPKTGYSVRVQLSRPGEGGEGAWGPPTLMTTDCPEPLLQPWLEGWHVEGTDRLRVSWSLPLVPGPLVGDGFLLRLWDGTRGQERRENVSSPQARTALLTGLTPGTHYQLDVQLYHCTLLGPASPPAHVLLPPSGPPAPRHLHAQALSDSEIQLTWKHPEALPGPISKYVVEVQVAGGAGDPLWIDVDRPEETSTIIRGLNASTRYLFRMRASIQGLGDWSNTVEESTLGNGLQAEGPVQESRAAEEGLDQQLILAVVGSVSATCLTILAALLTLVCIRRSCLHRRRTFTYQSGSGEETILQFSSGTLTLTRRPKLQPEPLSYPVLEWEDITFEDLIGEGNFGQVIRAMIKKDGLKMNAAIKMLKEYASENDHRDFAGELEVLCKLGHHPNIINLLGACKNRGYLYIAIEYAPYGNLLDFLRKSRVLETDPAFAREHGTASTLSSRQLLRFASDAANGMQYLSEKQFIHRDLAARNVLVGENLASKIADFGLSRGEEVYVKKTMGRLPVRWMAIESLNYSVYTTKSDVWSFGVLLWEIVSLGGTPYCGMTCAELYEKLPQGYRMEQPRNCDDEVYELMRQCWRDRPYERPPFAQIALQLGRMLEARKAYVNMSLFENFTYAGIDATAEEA

PIK3CA (C420R) = PIK3CA (C420R) (Homo sapiens, UniProt P42336, C420R); test: KINOMEscan binding assay; settings: read-out: % Ctrl @ 10000 nM
PIP5K1A = PIP5K1A (Homo sapiens, UniProt Q99755); test: KINOMEscan binding assay; settings: read-out: % Ctrl @ 10000 nM
TIE2 = TIE2 (Homo sapiens, UniProt Q02763); test: KINOMEscan binding assay; settings: read-out: % Ctrl @ 10000 nM
CAMK2A = CAMK2A (Homo sapiens, UniProt Q9UQM7); test: KINOMEscan binding assay; settings: read-out: % Ctrl @ 10000 nM
PIP5K2B = PIP5K2B (Homo sapiens, UniProt P78356); test: KINOMEscan binding assay; settings: read-out: % Ctrl @ 10000 nM
Sequence of PIP5K2B (P78356 whole entry): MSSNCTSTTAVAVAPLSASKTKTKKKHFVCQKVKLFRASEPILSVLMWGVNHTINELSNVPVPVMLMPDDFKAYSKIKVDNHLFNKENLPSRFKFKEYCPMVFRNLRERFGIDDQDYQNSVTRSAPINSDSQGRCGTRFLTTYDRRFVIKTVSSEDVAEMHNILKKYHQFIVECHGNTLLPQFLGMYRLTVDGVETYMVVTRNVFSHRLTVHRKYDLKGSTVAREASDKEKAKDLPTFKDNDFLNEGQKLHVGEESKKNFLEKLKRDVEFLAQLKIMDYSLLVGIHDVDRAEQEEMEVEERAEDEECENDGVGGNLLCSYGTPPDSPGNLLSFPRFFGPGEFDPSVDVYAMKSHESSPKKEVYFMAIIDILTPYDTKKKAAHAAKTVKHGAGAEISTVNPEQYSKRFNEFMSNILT

HASPIN = HASPIN (Homo sapiens, UniProt Q8TF76); test: KINOMEscan binding assay; settings: read-out: % Ctrl @ 10000 nM
LIMK2 = LIMK2 (Homo sapiens, UniProt P53671); test: KINOMEscan binding assay; settings: read-out: % Ctrl @ 10000 nM
PLK1 = PLK1 (Homo sapiens, UniProt P53350); test: KINOMEscan binding assay; settings: read-out: % Ctrl @ 10000 nM
RET (V804M) = RET (V804M) (Homo sapiens, UniProt P07949, V804M); test: KINOMEscan binding assay; settings: read-out: % Ctrl @ 10000 nM
Sequence of RET (V804M) (P07949 29-1114 V804M): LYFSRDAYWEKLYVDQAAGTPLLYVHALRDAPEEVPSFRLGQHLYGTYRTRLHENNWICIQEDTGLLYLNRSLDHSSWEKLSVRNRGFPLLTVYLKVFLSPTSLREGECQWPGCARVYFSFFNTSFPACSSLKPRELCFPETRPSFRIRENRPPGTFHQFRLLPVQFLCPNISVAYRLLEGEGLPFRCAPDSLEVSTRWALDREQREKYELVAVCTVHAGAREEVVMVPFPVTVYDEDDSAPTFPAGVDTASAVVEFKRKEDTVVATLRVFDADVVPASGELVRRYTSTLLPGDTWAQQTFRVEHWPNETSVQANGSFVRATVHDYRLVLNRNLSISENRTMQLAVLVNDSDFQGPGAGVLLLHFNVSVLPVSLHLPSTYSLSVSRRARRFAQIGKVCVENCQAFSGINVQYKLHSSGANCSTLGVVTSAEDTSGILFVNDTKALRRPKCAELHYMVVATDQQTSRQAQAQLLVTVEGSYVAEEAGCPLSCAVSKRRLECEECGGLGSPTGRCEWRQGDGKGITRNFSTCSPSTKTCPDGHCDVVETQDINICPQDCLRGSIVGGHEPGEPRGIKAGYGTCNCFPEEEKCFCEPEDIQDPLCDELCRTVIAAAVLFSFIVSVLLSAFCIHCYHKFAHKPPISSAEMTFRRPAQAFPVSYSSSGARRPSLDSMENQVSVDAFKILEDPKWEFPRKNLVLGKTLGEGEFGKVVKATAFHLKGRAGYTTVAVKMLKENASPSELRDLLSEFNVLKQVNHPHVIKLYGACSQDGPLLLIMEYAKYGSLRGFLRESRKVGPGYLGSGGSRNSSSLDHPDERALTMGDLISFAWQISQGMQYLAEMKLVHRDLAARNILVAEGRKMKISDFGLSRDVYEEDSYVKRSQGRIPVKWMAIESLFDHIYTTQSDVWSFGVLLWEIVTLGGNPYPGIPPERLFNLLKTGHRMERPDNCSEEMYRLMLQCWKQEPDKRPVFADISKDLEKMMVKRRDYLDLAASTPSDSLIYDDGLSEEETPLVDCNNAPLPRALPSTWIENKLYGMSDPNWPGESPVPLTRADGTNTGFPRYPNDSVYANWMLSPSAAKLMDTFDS

Sequence of RIPK1 (Q13546 whole entry): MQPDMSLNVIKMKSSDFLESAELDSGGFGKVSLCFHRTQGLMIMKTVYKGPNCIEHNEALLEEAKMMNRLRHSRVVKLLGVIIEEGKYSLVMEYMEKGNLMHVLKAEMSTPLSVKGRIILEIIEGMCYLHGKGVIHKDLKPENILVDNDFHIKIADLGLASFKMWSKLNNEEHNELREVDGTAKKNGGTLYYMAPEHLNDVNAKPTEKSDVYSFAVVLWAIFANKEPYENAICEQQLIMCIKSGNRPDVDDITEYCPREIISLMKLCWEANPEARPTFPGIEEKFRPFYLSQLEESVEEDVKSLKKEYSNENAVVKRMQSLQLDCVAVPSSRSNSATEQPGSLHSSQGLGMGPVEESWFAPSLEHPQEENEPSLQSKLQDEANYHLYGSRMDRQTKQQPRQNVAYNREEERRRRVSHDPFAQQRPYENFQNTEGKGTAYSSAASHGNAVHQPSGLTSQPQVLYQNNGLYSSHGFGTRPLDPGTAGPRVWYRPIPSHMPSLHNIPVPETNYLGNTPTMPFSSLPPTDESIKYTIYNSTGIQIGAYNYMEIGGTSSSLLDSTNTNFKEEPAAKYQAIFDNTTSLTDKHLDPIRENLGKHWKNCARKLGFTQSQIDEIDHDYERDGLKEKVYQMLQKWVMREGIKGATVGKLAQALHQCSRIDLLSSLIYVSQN

Q: Which results are given for `Nc1ncc(-c2nc3ccccc3o2)c(-c2ccncc2)n1` [Comparative Compound 324, 5-(1,3-benzoxazol-2-yl)-4-(pyridine-4-yl)pyrimidin-2-amine]?
A: remaining binding at 10 µM (RIPK1): 100%; remaining binding at 10 µM (BRAF (V600E)): 59%; remaining binding at 10 µM (DRAK2): 87%; remaining binding at 10 µM (PRKCQ): 100%; remaining binding at 10 µM (MET (Y1235D)): 83%; remaining binding at 10 µM (FGR): 94%; Number of Hits S (1) (non-mutant kinases; % Ctrl<1): 0; S-score S (1) (non-mutant kinases; % Ctrl<1): 0; Number of Hits S (10) (non-mutant kinases; % Ctrl<10): 4; S-score S (10) (non-mutant kinases; % Ctrl<10): 0.01; Number of Hits S (35) (non-mutant kinases; % Ctrl<35): 8; S-score S (35) (non-mutant kinases; % Ctrl<35): 0.02; remaining binding at 10 µM (ACVRL1): 100%; remaining binding at 10 µM (ANKK1): 71%; remaining binding at 10 µM (CSF1R-autoinhibited): 70%; remaining binding at 10 µM (MEK6): 98%; % Ctrl @ 10000 nM (FLT3 (ITD)): 85 % Ctrl; remaining binding at 10 µM (TIE1): 100%; remaining binding at 10 µM (PIK3CA (C420R)): 99%; remaining binding at 10 µM (PIP5K1A): 96%; remaining binding at 10 µM (TIE2): 98%; remaining binding at 10 µM (CAMK2A): 99%; remaining binding at 10 µM (PIP5K2B): 100%; remaining binding at 10 µM (HASPIN): 70%; remaining binding at 10 µM (LIMK2): 100%; remaining binding at 10 µM (PLK1): 90%; remaining binding at 10 µM (RET (V804M)): 100%

Q: Which results are given for `CNc1c(C(N)=O)c2ccccn2c1C(=O)c1ccc(F)cc1` [Compound A, 2-methyl-amino-3-[(4-fluorophenyl)carbonyl]indolizine-1-carboxamide]?
A: remaining binding at 10 µM (RIPK1): 99%; remaining binding at 10 µM (BRAF (V600E)): 86%; remaining binding at 10 µM (DRAK2): 87%; remaining binding at 10 µM (PRKCQ): 88%; remaining binding at 10 µM (MET (Y1235D)): 77%; remaining binding at 10 µM (FGR): 66%; remaining binding at 10 µM (ACVRL1): 100%; remaining binding at 10 µM (ANKK1): 68%; remaining binding at 10 µM (CSF1R-autoinhibited): 100%; remaining binding at 10 µM (MEK6): 73%; remaining binding at 10 µM (TIE1): 95%; remaining binding at 10 µM (PIK3CA (C420R)): 94%; remaining binding at 10 µM (PIP5K1A): 100%; remaining binding at 10 µM (TIE2): 100%; remaining binding at 10 µM (CAMK2A): 70%; remaining binding at 10 µM (PIP5K2B): 100%; remaining binding at 10 µM (HASPIN): 45%; remaining binding at 10 µM (LIMK2): 100%; remaining binding at 10 µM (PLK1): 82%; remaining binding at 10 µM (RET (V804M)): 100%
